Laboratory results as given in PubChem BioAssay AID328 (DTP/NCI, 2004).
“And” between values parts separate entries of the source, which are not always exact repeats. Identical values can stand only once. Inconclusive results and toxic doses are left out.

Test system: BDF1 mice, P388 leukemia ip, median survival T/C
Assay: NCI In Vivo Anticancer Drug Screen. Data for tumor model P388 Leukemia (intraperitoneal) in B6D2F1 (BDF1) mice
Details: endpoint: median survival time, higher = longer survival
Summary of the method: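 Antitumour effect was judged in vivo: survival in drug-treated mice, normalised to that of vehicle-dosed controls, gives the reported T/C.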

[1] = dose: 100.0 mg/kg/injection, schedule: Q01DX009 (ip), vehicle: saline with Tween-80
[2] = dose: 200.0 mg/kg/injection, schedule: Q01DX009 (ip), vehicle: saline with Tween-80
[3] = dose: 400.0 mg/kg/injection, schedule: Q01DX009 (ip), vehicle: saline with Tween-80
[4] = dose: 200.0 mg/kg/injection, schedule: Q01DX001 (ip), vehicle: saline with Tween-80

Compound: O=C1C=CC(=O)O1 (tested in a mixture with another compound)
- T/C (dose: 0.19 mg/kg/injection, schedule: Q01DX009 (ip), vehicle: Klucel (hydroxypropylcellulose) (HPC)): 100 % of control
- T/C (dose: 0.22 mg/kg/injection, schedule: Q01DX009 (ip), vehicle: Klucel (hydroxypropylcellulose) (HPC)): 95 % of control
- T/C (dose: 0.39 mg/kg/injection, schedule: Q01DX009 (ip), vehicle: Klucel (hydroxypropylcellulose) (HPC)): 118 % of control
- T/C (dose: 0.44 mg/kg/injection, schedule: Q01DX009 (ip), vehicle: Klucel (hydroxypropylcellulose) (HPC)): 90 % of control
- T/C (dose: 0.78 mg/kg/injection, schedule: Q01DX009 (ip), vehicle: Klucel (hydroxypropylcellulose) (HPC)): 90 % of control
- T/C (dose: 0.88 mg/kg/injection, schedule: Q01DX009 (ip), vehicle: Klucel (hydroxypropylcellulose) (HPC)): 95 % of control
- T/C (dose: 1.3 mg/kg/injection, schedule: Q01DX009 (ip), vehicle: Klucel (hydroxypropylcellulose) (HPC)): 109 % of control
- T/C (dose: 1.56 mg/kg/injection, schedule: Q01DX009 (ip), vehicle: other): 95 % of control
- T/C (dose: 2.3 mg/kg/injection, schedule: Q04DX003 (ip), vehicle: Klucel (hydroxypropylcellulose) (HPC)): 91 % of control
- T/C (dose: 3.5 mg/kg/injection, schedule: Q04DX003 (ip), vehicle: Klucel (hydroxypropylcellulose) (HPC)): 116 % of control
- T/C (dose: 5.2 mg/kg/injection, schedule: Q04DX003 (ip), vehicle: Klucel (hydroxypropylcellulose) (HPC)): 100 % of control
- T/C (dose: 5.8 mg/kg/injection, schedule: Q04DX003 (ip), vehicle: Klucel (hydroxypropylcellulose) (HPC)): 100 % of control
- T/C (dose: 6.25 mg/kg/injection, schedule: Q01DX009 (ip), vehicle: saline): 88 % of control
- T/C (dose: 7.2 mg/kg/injection, schedule: Q04DX003 (ip), vehicle: Klucel (hydroxypropylcellulose) (HPC)): 95 % of control
- T/C (dose: 8.8 mg/kg/injection, schedule: Q04DX003 (ip), vehicle: Klucel (hydroxypropylcellulose) (HPC)): 100 % of control
- T/C (dose: 12.5 mg/kg/injection, schedule: Q01DX009 (ip), vehicle: saline): 97 % of control
- T/C (dose: 12.5 mg/kg/injection, schedule: Q04DX003 (ip), vehicle: saline): 104 % of control
- T/C (dose: 13.0 mg/kg/injection, schedule: Q04DX003 (ip), vehicle: Klucel (hydroxypropylcellulose) (HPC)): 104 % of control
- T/C (dose: 25.0 mg/kg/injection, schedule: Q04DX003 (ip), vehicle: saline): 102 % of control
- T/C (dose: 50.0 mg/kg/injection, schedule: Q01DX009 (ip), vehicle: saline): 102 % of control and 112 % of control and 113 % of control
- T/C (dose: 50.0 mg/kg/injection, schedule: Q04DX003 (ip), vehicle: saline): 115 % of control and 122 % of control and 116 % of control
- T/C (dose: 150.0 mg/kg/injection, schedule: Q04DX003 (ip), vehicle: saline): 122 % of control
- T/C (dose: 200.0 mg/kg/injection, schedule: Q01DX009 (ip), vehicle: saline): 94 % of control [middle of 4 runs]
- T/C (dose: 300.0 mg/kg/injection, schedule: Q01DX009 (ip), vehicle: saline): 100 % of control
- T/C (dose: 300.0 mg/kg/injection, schedule: Q04DX003 (ip), vehicle: saline): 108 % of control and 114 % of control
- T/C (dose: 400.0 mg/kg/injection, schedule: Q04DX003 (ip), vehicle: saline): 121 % of control

Compound: O=C1c2ccccc2-c2c(Br)c3ccccc3c(=O)n21
- T/C (dose: 50.0 mg/kg/injection, schedule: Q01DX009 (ip), vehicle: saline with Tween-80): 105 % of control
- T/C [1]: 105 % of control
- T/C [2]: 117 % of control
- T/C [3]: 101 % of control

Compound: COc1cccc2c1C(=O)c1c(O)c3c(c(O)c1C2=O)C[C@@](O)(/C(C)=N/NC(=O)c1ccc(O)cc1)C[C@@H]3OC1CC(N)C(O)C(C)O1 (stereo not given in full)
- T/C (dose: 0.25 mg/kg/injection, schedule: Q01DX009 (ip), vehicle: water): 120 % of control
- T/C (dose: 1.0 mg/kg/injection, schedule: Q01DX009 (ip), vehicle: water): 164 % of control and 223 % of control
- T/C (dose: 2.0 mg/kg/injection, schedule: Q01DX009 (ip), vehicle: water): 156 % of control and 207 % of control
- T/C (dose: 4.0 mg/kg/injection, schedule: Q01DX009 (ip), vehicle: water): 224 % of control and 225 % of control
- T/C (dose: 8.0 mg/kg/injection, schedule: Q01DX009 (ip), vehicle: water): 245 % of control

Compound: CCC(c1ccccc1)C(C(=O)O)C(=O)O (stereo not given)
- T/C (dose: 100.0 mg/kg/injection, schedule: Q04DX002 (ip), vehicle: saline with Tween-80): 110 % of control
- T/C (dose: 200.0 mg/kg/injection, schedule: Q04DX002 (ip), vehicle: saline with Tween-80): 101 % of control
- T/C (dose: 400.0 mg/kg/injection, schedule: Q04DX002 (ip), vehicle: saline with Tween-80): 103 % of control

Compound: CCOC(=O)C1CC(=O)c2ccccc2C1 (stereo not given)
- T/C (dose: 12.5 mg/kg/injection, schedule: Q01DX009 (ip), vehicle: other): 87 % of control
- T/C (dose: 100.0 mg/kg/injection, schedule: Q01DX009 (ip), vehicle: other): 96 % of control
- T/C (dose: 200.0 mg/kg/injection, schedule: Q01DX009 (ip), vehicle: other): 110 % of control

Compound: C=CCc1ccc(OCCOC(=O)Nc2cccc(SC)c2)c(OC)c1
- T/C (dose: 12.5 mg/kg/injection, schedule: Q01DX009 (ip), vehicle: DMSO): 90 % of control
- T/C (dose: 25.0 mg/kg/injection, schedule: Q01DX009 (ip), vehicle: DMSO): 107 % of control
- T/C (dose: 50.0 mg/kg/injection, schedule: Q01DX009 (ip), vehicle: DMSO): 93 % of control

Compound: COC(=O)CCSCCC(=O)OC
- T/C [1]: 100 % of control
- T/C (dose: 100.0 mg/kg/injection, schedule: Q04DX003 (ip), vehicle: saline with Tween-80): 110 % of control
- T/C [2]: 100 % of control
- T/C (dose: 200.0 mg/kg/injection, schedule: Q04DX003 (ip), vehicle: saline with Tween-80): 100 % of control
- T/C [3]: 100 % of control
- T/C (dose: 400.0 mg/kg/injection, schedule: Q04DX003 (ip), vehicle: saline with Tween-80): 105 % of control

Compound: O=S(=O)(ON=C1C=CC(=NOS(=O)(=O)c2ccccc2)C=C1)c1ccccc1
- T/C (dose: 3.13 mg/kg/injection, schedule: Q04DX003 (ip), vehicle: Klucel (hydroxypropylcellulose) (HPC)): 109 % of control
- T/C (dose: 6.25 mg/kg/injection, schedule: Q04DX003 (ip), vehicle: Klucel (hydroxypropylcellulose) (HPC)): 111 % of control
- T/C (dose: 12.5 mg/kg/injection, schedule: Q04DX003 (ip), vehicle: Klucel (hydroxypropylcellulose) (HPC)): 109 % of control
- T/C (dose: 25.0 mg/kg/injection, schedule: Q04DX003 (ip), vehicle: Klucel (hydroxypropylcellulose) (HPC)): 109 % of control

Compound: CC(C)=C(B1OC(C)(C)C(C)(C)O1)B1OC(C)(C)C(C)(C)O1
- T/C (dose: 100.0 mg/kg/injection, schedule: Q01DX001 (ip), vehicle: saline with Tween-80): 110 % of control
- T/C [4]: 105 % of control
- T/C (dose: 400.0 mg/kg/injection, schedule: Q01DX001 (ip), vehicle: saline with Tween-80): 105 % of control

Compound: O=Cc1c2ccc(Cl)cc2nc2cc(Cl)ccc12
- T/C [4]: 91 % of control

Compound: O/C(=C/C(=S)S)c1cccs1
- T/C (dose: 0.1 mg/kg/injection, schedule: Q04DX003 (ip), vehicle: water): 88 % of control
- T/C (dose: 0.2 mg/kg/injection, schedule: Q04DX003 (ip), vehicle: water): 97 % of control
- T/C (dose: 0.39 mg/kg/injection, schedule: Q01DX009 (ip), vehicle: water): 101 % of control
- T/C (dose: 0.4 mg/kg/injection, schedule: Q04DX003 (ip), vehicle: water): 95 % of control
- T/C (dose: 0.78 mg/kg/injection, schedule: Q01DX009 (ip), vehicle: water): 97 % of control
- T/C (dose: 0.8 mg/kg/injection, schedule: Q04DX003 (ip), vehicle: water): 89 % of control
- T/C (dose: 1.56 mg/kg/injection, schedule: Q01DX009 (ip), vehicle: water): 92 % of control
- T/C (dose: 3.12 mg/kg/injection, schedule: Q01DX009 (ip), vehicle: water): 100 % of control
- T/C (dose: 6.25 mg/kg/injection, schedule: Q01DX009 (ip), vehicle: water): 102 % of control
- T/C (dose: 6.25 mg/kg/injection, schedule: Q04DX003 (ip), vehicle: water): 111 % of control
- T/C (dose: 12.5 mg/kg/injection, schedule: Q01DX009 (ip), vehicle: water): 94 % of control

Compound: Cc1ccc(C2=C(Cl)C(=O)NC2=O)s1
- T/C (dose: 12.5 mg/kg/injection, schedule: Q01DX001 (ip), vehicle: saline with Tween-80): 112 % of control

Compound: Nc1ccc(/C=C/c2ccnc3ccccc23)cc1
- T/C (dose: 3.13 mg/kg/injection, schedule: Q04DX003 (ip), vehicle: saline with Tween-80): 109 % of control
- T/C (dose: 6.25 mg/kg/injection, schedule: Q04DX003 (ip), vehicle: saline with Tween-80): 109 % of control
- T/C (dose: 12.5 mg/kg/injection, schedule: Q01DX009 (ip), vehicle: saline with Tween-80): 112 % of control
- T/C (dose: 12.5 mg/kg/injection, schedule: Q04DX003 (ip), vehicle: saline with Tween-80): 109 % of control
- T/C (dose: 25.0 mg/kg/injection, schedule: Q01DX009 (ip), vehicle: saline with Tween-80): 91 % of control
